Assay [1] relates to Pyricularia oryzae (rice blast). The experiment in a line: whole plant or invertebrate. Conditions: Pyricularia oryzae, foliar, read-out: PYRIOR disease control, host rice; foliar spray; 400 ppm (+++: 100 ppm). It is filed as in vivo.
Assay [2] concerns aster leafhopper (Macrosteles fascifrons). Briefly: whole plant or invertebrate. It is filed as in vivo. Conditions: Macrosteles fascifrons, 24 h, read-out: ALH percent mortality. As to the method:
(§1) The compounds identified in Table I were tested for miticidal and insecticidal activity against eight species. The following abbreviations are used in the Table III:
ALH refers to aster leafhopper
(§2) In conducting evaluations of insecticidal activity, each test compound was formulated as a 400 ppm solution, and this solution was then diluted with water to give lesser concentrations. The 400 ppm solution was prepared by combining 19.2 mL of 0.05% solution of Tween 20 (polyoxyethylene (20) sorbitan monolaurate) in water with a solution of 8 mg of the compound in 0.8 mL of acetone/EtOH (9/1).
Activity against aster leafhopper (Macrosteles fascifrons) was tested as follows. The test was run using concentrations of 400 ppm and 50 ppm. One ounce plastic cups containing a cotton wick was sprayed with 0.4 mL of formulated material using a flat-fan nozzle. The excess moisture was allowed to evaporate. Then five to ten carbon dioxide anesthetized adult leafhoppers were added to each cup. The cups were capped and held at room temperature for 24 hours. Percent mortality was then determined.

Assay [3] deals with beet armyworm (Spodoptera exiqua). Briefly: Activity against beet armyworm. It is filed as in vivo. The note with it: Spodoptera, 144 h, 6 days, read-out: BAW activity (rated on live and dead larvae and size of live larvae). As to the method:
as §1
BAW refers to beet armyworm
as §2
Activity against beet armyworm (Spodoptera exiqua) was evaluated as follows. The test is run using concentrations of 400 ppm and 50 ppm. A general purpose lepidoptera artificial diet was diluted to half strength with a 5% non nutritive agar. 8 mL of this diet material was dispensed into one ounce diet cups. One hour prior to treatment, 35 to 40 eggs were dispensed onto the diet surface. The cups were then sprayed with formulated material through a flat-fan nozzle. Treated cups were air dried prior to sealing with plastic caps. The cups were held for 6 days at room temperature. Activity was then rated based on the total number of live and dead larvae, and on the size of live larvae.

In assay [4] the test system is Southern corn rootworm (Diabrotica undecimpuctata howardi Barber). The experiment in a line: whole plant or invertebrate. It is filed as in vivo. Conditions: 400 ppm, soil concentration of 24 ppm, 3-4 days, read-out: SCRW mortality. The method, then:
as §1
SCRW refers to southern corn rootworm
as §2
Activity on Southern corn rootworm (Diabrotica undecimpuctata howardi Barber) was evaluated by adding one mL of test solution containing a predetermined concentration of test compound to a cup containing a kernel of corn in 16 g of sterile soil. This produces a soil concentration of 24 ppm. After 1.5 to 2 hours of drying, five 4th instar corn rootworm larvae were added to the individual cups. Mortality was measured at 3-4 days by emptying the cup onto a pan and inspecting the soil for live rootworms.

Assay [5] concerns tobacco budworm (Heliothis virescens). Briefly: Activity against tobacco budworm. It is filed as in vivo. Conditions: Heliothis virescens, 144 h, 6 days, read-out: TBW activity (rated on live and dead larvae and size of live larvae). As to the method: as §1
TBW refers to tobacco budworm
as §2
Activity against tobacco budworm (Heliothis virescens) was evaluated as follows. A general purpose lepidoptera artificial diet was diluted to half strength with a 5% non nutritive agar. 8 mL of this diet material was dispensed into each one ounce diet cup. One hour prior to treatment 18 to 20 eggs were dispensed onto the diet surface. The cups were then sprayed with formulated material through a flat-fan nozzle. The test was run using concentrations of 400 ppm and 50 ppm. Treated cups were air dried prior to sealing with plastic caps. The cups were held for 6 days at room temperature. Activity was then rated based on the total number of live and dead larvae, and on the size of live larvae.

Assay [6] has as its system German cockroach (Blattella germanicus). The experiment in a line: whole plant or invertebrate. It is filed as in vivo. Conditions: 240 h, ten days, read-out: GECR activity (rated on live and dead insects). The method, then: as §1
GECR refers to German cockroach
as §2
Activity against German cockroach (Blattella germanicus) was evaluated as follows. 8 mL of alfalfa based green insect diet material was dispensed into a one ounce diet cup. The cups were then sprayed with formulated material through a flat-fan nozzle. The test was run using concentrations of 400 ppm and 50 ppm. Treated cups were air dried for 24 hours and infested with five late third or early fourth instar German cockroaches. The cups were capped and held for ten days in an environmental growth chamber at a temperature of […]. Activity was then rated based on the total number of live and dead insects.

For assay [7], the system named is cotton aphid (Aphis gossypii). Briefly: whole plant or invertebrate. The note with it: 72 h; for mortality at 50 ppm: read-out: CA activity (percent based on aphids present in plants sprayed with solvent alone), 50 ppm, squash plants, three days after treatment; for mortality at 400 ppm: read-out: CA activity (percent based on aphids present in plants sprayed with solvent alone), 400 ppm, squash plants, three days after treatment.

For assay [8], the system named is two spotted spider mite (Tetranychus urticae). Briefly: whole plant or invertebrate. Conditions: 72 h; for mortality at 50 ppm: read-out: TSSM activity (percent based on mites present in plants sprayed with solvent alone), 50 ppm, squash plants, three days after treatment; for mortality at 400 ppm: read-out: TSSM activity (percent based on mites present in plants sprayed with solvent alone), 400 ppm, squash plants, three days after treatment.

Assay [9] deals with Plasmopara viticola (downy mildew). The experiment in a line: Foliar spray fungicide test, Plasmopara viticola (downy mildew) on grape. The note with it: Plasmopara viticola, foliar, read-out: PLASVI disease control.
Protocol: (§3) The test compounds were formulated for application by dissolving 50 mg of the compound into 1.25 ml of solvent. The solvent was prepared by mixing 50 ml of "Tween 20" (polyoxyethylene (20) sorbitan monolaurate emulsifier) with 475 ml of acetone and 475 ml of ethanol. The solvent/compound solution was diluted to 125 ml with deionized water. The resulting formulation contains 400 ppm test chemical. Lower concentrations were obtained by serial dilution with the solvent-surfactant mixture.
(§4) The formulated test compounds were applied by foliar spray.
(§5) The formulated technical compounds were sprayed on all foliar surfaces of the host plants to past run-off. Single pots of each host plant were placed on raised, revolving pedestals in a fume hood. Test solutions were sprayed on all foliar surfaces. All treatments were allowed to dry and the plants were inoculated with the appropriate pathogens within 24 hours.
(§6) The effectiveness of test compounds in controlling disease was rated using the following scale.
Assay [10] deals with Leptosphaeria nodorum (glume blotch). Briefly: Foliar spray fungicide test, Leptosphaeria nodorum (glume blotch) on wheat. The note with it: Parastagonospora nodorum, in Triticum aestivum, foliar, read-out: LETPNO disease control, host wheat, 400 ppm (+++: 100 ppm).
Protocol: as §3, §4, §5, §6
Assay [11] concerns Puccinia recondita tritici (leaf rust). Briefly: Foliar spray fungicide test, Puccinia recondita tritici (leaf rust) on wheat. The note with it: Puccinia recondita, in Triticum aestivum, foliar, read-out: PUCCRT disease control, host wheat, 400 ppm (+++: 100 ppm).
Assay [12] deals with Erysiphe graminis tritici (powdery mildew). The experiment in a line: Foliar spray fungicide test, Erysiphe graminis tritici (powdery mildew) on wheat. Conditions: Blumeria graminis, in Triticum aestivum, foliar, read-out: ERYSGT disease control, host wheat, 400 ppm (+++: 100 ppm).
Protocol: as §3
The formulated test compounds were applied by foliar spray. The following plant pathogens and their corresponding plants were employed.
as §5, §6

Each structure is given as a SMILES string.

For the compound `Fc1cccc2c(OCCc3ccc(Oc4cc(C(F)(F)F)ccn4)cc3)ncnc12` [Compound 12], the pest or weed control at 400 µg/mL in assay [1] fell in the range of 90 to 100%; in [9] it was 90 to 100%; in [10], 20 to 89%; in assay [11] it was 90 to 100%; in assay [12], 90 to 100%. In addition, the mortality at 50 ppm in assay [2] worked out at 80%; in assay [6], 0%; in assay [7], 100%; in assay [8], 90%. For the same compound, the mortality at 400 ppm in assay [2] stood at 100%; in assay [6], 60%; in assay [7] it was 100%; in assay [8], 100%. Further, the results for the pest or weed control at 50 ppm in [3] and in assay [5] were 100% and 70%, respectively. In addition, the pest or weed control at 400 ppm in assay [3] and in assay [5] was 100% in each case. For the same compound, the mortality at 24 ppm in assay [4] is 0%.

Turning to `Fc1cccc2ncnc(OCCc3ccc(Oc4ccc(Cl)cn4)cc3)c12` [Compound 16], the pest or weed control at 400 µg/mL is 90 to 100% in [1]; 90 to 100% in [9]; 20 to 89% in [10]; 90 to 100% in assay [11]; 90 to 100% in assay [12]. Moreover, the mortality at 50 ppm was found to be 80% in assay [2], 0% in assay [6], 100% in assay [7] and 100% in [8]. The mortality at 400 ppm is 100% in assay [2], 40% in [6], 100% in assay [7] and 100% in [8]. For the same compound, the pest or weed control at 50 ppm in assay [3] and in assay [5] was 100% throughout. The pest or weed control at 400 ppm in [3] and in assay [5] was 100% throughout. The mortality at 24 ppm in assay [4] was 80%.

For `N#Cc1ccc(Oc2ccc(CCOc3ncnc4c(F)cccc34)cc2)nc1` [Compound 20], the pest or weed control at 400 µg/mL is 90 to 100% in assay [1]; 90 to 100% in assay [9]; 20 to 89% in [10]; 90 to 100% in assay [11]; 90 to 100% in assay [12]. The mortality at 400 ppm in [2], in assay [6], in assay [7] and in assay [8] was 0% each time. Moreover, the pest or weed control at 400 ppm in assay [3] and in assay [5] was 0% throughout. In addition, the mortality at 24 ppm in assay [4] worked out at 0%.

With `N#Cc1ccc(Oc2ccc(CCOc3ncnc4ccccc34)cc2)nc1` [Compound 21], the pest or weed control at 400 µg/mL is 20 to 89% in assay [1]; 90 to 100% in assay [9]; 20 to 89% in assay [10]; 90 to 100% in assay [11]; 20 to 89% in [12]. Further, the mortality at 400 ppm in [2] turned out to be 60%; in assay [6] it was 0%; in assay [7], 100%; in assay [8] it was 0%. Besides, the pest or weed control at 400 ppm in [3] and in assay [5] was 0% throughout. In addition, the mortality at 24 ppm in assay [4] came out at 0%.

As to `O=[N+]([O-])c1ccc(Oc2ccc(CCOc3ncnc4c(F)cccc34)cc2)nc1` [Compound 23], the pest or weed control at 400 µg/mL in assay [1] lay within 20 to 89%; in [9], 90 to 100%; in [10], 20 to 89%; in assay [11], 90 to 100%; in assay [12] it was 20 to 89%. The mortality at 50 ppm in assay [2] was found to be 60%; in assay [6] it was 0%; in [7], 0%; in assay [8] it was 0%. Also, the mortality at 400 ppm in assay [2] came out at 80%; in assay [6], 40%; in [7], 90%; in assay [8] it was 50%. The pest or weed control at 50 ppm in [3] and in assay [5] was 100% throughout. For the same compound, the pest or weed control at 400 ppm in assay [3] and in assay [5] was 100% each time. The mortality at 24 ppm in assay [4] turned out to be 0%.

Turning to `Fc1cccc2c(OCCc3ccc(Oc4ccc(C(Cl)(Cl)Cl)cn4)cc3)ncnc12` [Compound 25], the pest or weed control at 400 µg/mL lay within 20 to 89% in [1]; 90 to 100% in assay [9]; 0 to 19% in [10]; 90 to 100% in assay [11]; 20 to 89% in assay [12]. Besides, the mortality at 400 ppm was found to be 0% in assay [2], 0% in [6], 85% in [7] and 90% in [8]. Also, the pest or weed control at 400 ppm was determined as 0% in assay [3] and 100% in assay [5]. For the same compound, the mortality at 24 ppm in [4] was 0%.

For `ClC(Cl)(Cl)c1ccc(Oc2ccc(CCOc3ncnc4ccccc34)cc2)nc1` [Compound 26], the pest or weed control at 400 µg/mL is 20 to 89% in [1]; 90 to 100% in assay [9]; 0 to 19% in assay [10]; 90 to 100% in assay [11]; 0 to 19% in [12]. The mortality at 400 ppm in assay [2] came out at 100%; in assay [6], 0%; in assay [7] it was 100%; in [8] it was 100%. In addition, the pest or weed control at 400 ppm in assay [3] was 0%; in [5], 100%. Besides, the mortality at 24 ppm in assay [4] was determined as 0%.
